These results are taken from patent US20110092505A1, “ORGANIC COMPOUNDS” (priority 2008, published 2011).

Experiment [1] deals with T1, protein kinase D2 (PKD2) (Homo sapiens, UniProt Q9BZL6).
T1 construct: This assay is performed with full length wild-type enzyme purchase from Invitrogen; purchased Invitrogen
T1 sequence (Q9BZL6 1-878): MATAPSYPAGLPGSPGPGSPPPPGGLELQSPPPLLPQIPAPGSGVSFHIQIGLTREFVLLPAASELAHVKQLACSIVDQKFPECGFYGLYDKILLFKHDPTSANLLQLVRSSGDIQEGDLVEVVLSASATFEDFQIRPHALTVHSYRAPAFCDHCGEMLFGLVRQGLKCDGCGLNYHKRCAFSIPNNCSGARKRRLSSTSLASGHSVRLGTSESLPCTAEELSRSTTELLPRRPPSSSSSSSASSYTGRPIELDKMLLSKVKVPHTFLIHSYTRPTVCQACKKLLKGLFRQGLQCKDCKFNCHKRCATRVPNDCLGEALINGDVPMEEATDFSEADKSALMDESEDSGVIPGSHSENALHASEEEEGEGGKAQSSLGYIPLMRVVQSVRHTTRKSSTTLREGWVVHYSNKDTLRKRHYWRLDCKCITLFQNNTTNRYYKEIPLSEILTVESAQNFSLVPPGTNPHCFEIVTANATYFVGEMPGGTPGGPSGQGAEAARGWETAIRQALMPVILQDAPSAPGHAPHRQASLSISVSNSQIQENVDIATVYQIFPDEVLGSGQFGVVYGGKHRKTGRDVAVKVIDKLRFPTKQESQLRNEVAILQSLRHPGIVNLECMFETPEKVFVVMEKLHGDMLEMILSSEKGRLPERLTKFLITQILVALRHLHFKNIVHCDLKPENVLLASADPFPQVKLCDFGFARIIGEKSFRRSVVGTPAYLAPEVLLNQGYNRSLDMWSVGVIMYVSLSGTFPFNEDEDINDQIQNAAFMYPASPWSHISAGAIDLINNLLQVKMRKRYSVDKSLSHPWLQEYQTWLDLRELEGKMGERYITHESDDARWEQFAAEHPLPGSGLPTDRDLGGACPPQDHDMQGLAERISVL
Description: PKD2 TR-FRET (LANCE) kinase assay. The class given is biochemical. The settings on record: full length wild-type enzyme, 20 μM ATP, syntide-2 substrate; read-out: Inhibitory Activity PKD2. The text has this:
(§1) The assay to measure protein kinase D2 (PKD2) activity is a time-resolved fluorescence resonance transfer (TR-FRET) assay using PerkinElmer's LANCE™ technology. In this case, a biotinylated syntide-2 peptide is used as the substrate in this reaction. Phosphorylation of the syntide-2 substrate is detected by a specific antibody that recognizes the phosphorylated peptide. A second fluorophore, APC, is conjugated to streptavidin that binds the biotinylated syntide-2 peptide. […] Therefore, when the europium labeled secondary antibody binds on the phosphorylated peptide, it is brought into close contact with the APC and excites this fluorophore.
(§2) This assay is performed with full length wild-type enzyme purchase from Invitrogen. The reaction buffer consists of 35 mM Tris-HCl pH7.5, 5 mM MgCl2, 0.02% Tween-20, 20 μM ATP, 1 mM DTT and 0.2 μg/mL PKD2 enzyme. The enzyme reaction is initiated by the addition of 2 μM syntide-2 peptide substrate and the reaction carried out for 50 minutes at room temperature. The reaction is stopped by a stop/detection Buffer consisting of 50 mM EDTA, 0.18 mg/mL rabbit polyclonal anti-phospho Syntide-2 antibody, 0.5 nM europium labeled anti-rabbit IgG and 10 nM streptavidin conjugated APC. After a one hour incubation with the stop/detection buffer, the reaction is read on an Envision 2100 Reader using a LANCE™ Eu/APC dual protocol. […] IC50 values are calculated using an Activity Base (IDBS) software program.
Background: In TR-FRET formats the signal depends on donor and acceptor labels being close together.

The target in experiment [2] is T2, protein kinase D1 (PKD1) (Homo sapiens, UniProt Q15139).
T2 construct: This assay is performed with full length wild-type enzyme that is expressed and purified from Sf9 insect cells; made in house; host or cells: Sf9 insect cells
T2 sequence (Q15139 1-912): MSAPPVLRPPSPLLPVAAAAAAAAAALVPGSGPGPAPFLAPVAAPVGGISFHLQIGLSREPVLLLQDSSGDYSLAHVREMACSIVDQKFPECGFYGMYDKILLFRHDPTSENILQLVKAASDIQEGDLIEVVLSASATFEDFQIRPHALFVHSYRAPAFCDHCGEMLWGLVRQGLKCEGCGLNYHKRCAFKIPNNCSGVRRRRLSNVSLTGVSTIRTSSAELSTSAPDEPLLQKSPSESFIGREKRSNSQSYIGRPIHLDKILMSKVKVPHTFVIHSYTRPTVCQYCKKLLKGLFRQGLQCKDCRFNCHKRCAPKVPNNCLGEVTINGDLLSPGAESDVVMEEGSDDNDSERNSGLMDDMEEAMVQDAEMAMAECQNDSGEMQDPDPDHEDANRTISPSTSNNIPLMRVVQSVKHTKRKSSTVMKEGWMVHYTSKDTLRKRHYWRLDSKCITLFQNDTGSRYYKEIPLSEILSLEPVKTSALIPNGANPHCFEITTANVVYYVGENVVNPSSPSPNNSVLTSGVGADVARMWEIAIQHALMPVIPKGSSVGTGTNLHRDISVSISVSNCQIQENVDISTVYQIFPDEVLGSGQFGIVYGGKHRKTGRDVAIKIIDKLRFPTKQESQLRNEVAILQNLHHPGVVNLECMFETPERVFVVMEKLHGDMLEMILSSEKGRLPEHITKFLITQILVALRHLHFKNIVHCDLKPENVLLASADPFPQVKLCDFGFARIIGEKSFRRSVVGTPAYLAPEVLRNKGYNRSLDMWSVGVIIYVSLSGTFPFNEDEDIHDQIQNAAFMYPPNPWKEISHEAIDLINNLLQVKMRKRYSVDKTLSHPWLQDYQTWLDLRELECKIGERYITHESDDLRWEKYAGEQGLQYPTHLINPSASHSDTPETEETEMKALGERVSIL
Description: PKD1 TR-FRET (LANCE) kinase assay. It is filed as biochemical. The settings on record: full length wild-type enzyme, 20 μM ATP, syntide-2 substrate; read-out: Inhibitory Activity PKD1.
From the text: as §1, with “D1 (PKD1)” for “D2 (PKD2)”
as §2, with “that is expressed and purified” for “purchase”, “Sf9 insect cells.” for “Invitrogen.”, “PKD1” for “PKD2”, “APC.” for “APC. After a one hour incubation with the stop/detection buffer, the reaction is read on an Envision 2100 Reader using a LANCE™ Eu/APC dual protocol.”

Take `NC(=O)c1cc(-c2ccnc(NCc3ccccc3Cl)c2)nc(N2CCNCC2)c1` [2′-(2-Chlorobenzylamino-6-piperazin-1-yl-[2,4′]bipyridinyl-4-carboxylic acid amide]: the IC50 was found to be 368 nM in experiment [1] and 25 nM in experiment [2].

For `NC(=O)c1cc(-c2ccnc(NC3CCCCC3)c2)nc(N2CCN3CCC[C@@H]3C2)c1` [2′-Cyclohexylamino-6-(R)-hexahydro-pyrrolo[1,2-a]pyrazin-2-yl-[2,4′]bipyridinyl-4-carboxylic acid amide], the values for the IC50 in experiment [1] and in experiment [2] were 297 nM and 35 nM, respectively.

With `N#CCNC(=O)c1ccc(-c2ccnc(NC3CCCCC3)c2)nc1N1CCNCC1` [2′-Cyclohexylamino-6-piperazin-1-yl-[2,4′]bipyridinyl-5-carbonxylic acid cyanomethyl-amide], the IC50 in experiment [1] turned out to be 281 nM; in experiment [2], 60 nM.

For the compound `COC(=O)c1ccc(-c2ccnc(NC3CCCCC3)c2)nc1N1CCNCC1` [2′-Cyclohexylamino-6-piperazin-1-yl-[2,4′]bipyridinyl-5-carboxylic acid methyl ester], the IC50 in experiment [1] worked out at 500 nM; in experiment [2] it was 83 nM.

`NC(=O)c1cc(-c2ccnc(NCCc3ccc(O)cc3)c2)nc(N2CCNCC2)c1` [2′-[2-(4-Hydroxyphenyl)ethylamino]-6-piperazin-1-yl-[2,4′]bipyridinyl-4-carboxylic acid amide]: the results for the IC50 in experiment [1] and in experiment [2] were 402 nM and 2 nM, respectively.

Consider `O=C1NCc2c1cc(-c1ccnc(NC3CCCCC3)c1)nc2N1CCn2cnnc2C1` [6-(2-Cyclohexylamino-pyridin-4yl)-4-(5,6-dihydro-8H-[1,2,4]triazolo[4,3-a]pyrazin-7-yl)-2,3-dihydro-pyrrolo[3,4-c]pyridin-1-one], for which the IC50 in experiment [1] was found to be 466 nM; in experiment [2], 56 nM.

Regarding `c1cc(-c2cc(-c3nnco3)cc(N3CCNCC3)n2)cc(NC2CCCCC2)n1` [Cyclohexyl-(4-[1,3,4]oxadiazol-2-yl-6-piperazin-1-yl-[2,4′]bipyridinyl-2′-yl)-amine], the IC50 in experiment [1] worked out at 214 nM; in experiment [2], 12 nM.

Regarding `CS(=O)(=O)c1cc(-c2ccnc(NC3CCCCC3)c2)nc(N2CCNCC2)c1` [Cyclohexyl-(4-methanesulfonyl-6-piperazin-1-yl-[2,4′]bipyridinyl-2′-yl)-amine], the IC50 was 735 nM in experiment [1] and 63 nM in experiment [2].

Consider `O=[N+]([O-])c1cc(-c2ccnc(NC3CCCCC3)c2)nc(N2CCNCC2)c1` [Cyclohexyl-(4-nitro-6-piperazin-1-yl-[2,4′]bipyridinyl-2′-yl)-amine], for which the IC50 in experiment [1] worked out at 62 nM; in experiment [2] it was 4 nM.

Consider `FC(F)(F)c1cc(-c2ccnc(NC3CCCCC3)c2)nc(N2CCNCC2)c1` [Cyclohexyl-(6-piperazin-1-yl-4-trifluoromethyl-[2,4′]bipyridinyl-2′-yl)amine], for which the IC50 in experiment [1] came to 101 nM; in experiment [2], 20 nM.

For `Nc1cc(-c2ccnc(NC3CCCCC3)c2)nc(N2CCNCC2)c1` [N*2′*-Cyclohexyl-6-piperazin-1-yl-[2,4′]bipyridinyl-4,2′-diamine], the IC50 in experiment [1] is 361 nM; in experiment [2], 10 nM.

With `Fc1ccc(Nc2cc(-c3ccnc(NC4CCCCC4)c3)nc(N3CCNCC3)c2)cc1` [N*2′*-Cyclohexyl-N*4*-(4-fluoro-phenyl)-6-piperazin-1-yl-[2,4′]bipyridinyl-4,2′-diamine], the IC50 was found to be 1160 nM in experiment [1] and 182 nM in experiment [2].
